Experimental data as given in US9113629B2, “4-amino-6-(4-substituted-phenyl)-picolinates and 6-amino-2-(4-substituted-phenyl)-pyrimidine-4-carboxylates and their use as herbicides” (DOW AGROSCIENCES LLC, priority 2013, dated 2015).
Like-named read-outs stand apart in the source and are kept apart here.

Columns and labels:
[1] = tested on: Key Broadleaf Weed and Crop Species; test: Post-emergent Test II herbicidal activity (Table 5); assay type: in vivo; conditions: post-emergence, 336 h, post-emergent, 14 days after application; for pest or weed control at 70 g/ha: 70 g ai/ha; for pest or weed control at 140 g/ha: 140 g ai/ha
Summary of the method: (§1)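 Spray rates: a highest rate plus ½×, ¼×, ⅛×, 1/16×, all delivered at 187 L/ha to plants at the first–second true leaf stage. Readout is a visual percent injury score at 14 d, where 100 means complete kill.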

[2] = tested on: Key Grass and Sedge Weeds as well as Grass Crops; test: Post-emergent Test II herbicidal activity (Table 6); assay type: in vivo; conditions: post-emergence, 336 h; for pest or weed control at 70 g/ha: application rate 70 g ai/ha; for pest or weed control at 140 g/ha: application rate 140 g ai/ha
Summary of the method: as §1

[3] = ABUTH: velvetleaf (Abutilon theophrasti), read-out: Visual Growth Reduction (%) 14 Days After Application ABUTH
[4] = AMARE: redroot pigweed (Amaranthus retroflexus), read-out: Visual Growth Reduction (%) 14 Days After Application AMARE
[5] = BRSNN: oilseed-rape, canola (Brassica napus), read-out: Visual Growth Reduction (%) 14 Days After Application BRSNN
[6] = CHEAL: lambsquarters (Chenopodium album), read-out: Visual Growth Reduction (%) 14 Days After Application CHEAL
[7] = EPHHL: wild poinsettia (Euphorbia heterophylla), read-out: Visual Growth Reduction (%) 14 Days After Application EPHHL
[8] = HELAN: sunflower (Helianthus annuus), read-out: Visual Growth Reduction (%) 14 Days After Application HELAN
[9] = VIOTR: wild pansy (Viola tricolor), read-out: Visual Growth Reduction (%) 14 Days After Application VIOTR
[10] = CYPES: yellow nutsedge (Cyperus esculentus), read-out: Visual Growth Reduction (%) 14 Days After Application, CYPES
[11] = DIGSA: crabgrass (Digitaria sanguinalis), read-out: Visual Growth Reduction (%) 14 Days After Application, DIGSA
[12] = ECHCG: barnyardgrass (Echinochloa crus-galli), read-out: Visual Growth Reduction (%) 14 Days After Application, ECHCG
[13] = ORYSA: rice (Oryza sativa), read-out: Visual Growth Reduction (%) 14 Days After Application, ORYSA
[14] = SETFA: giant foxtail (Setaria faberi), read-out: Visual Growth Reduction (%) 14 Days After Application, SETFA
[15] = SORVU: grain sorghum (Sorghum vulgare), read-out: Visual Growth Reduction (%) 14 Days After Application, SORVU
[16] = TRZSS (wheat, Triticum aestivum), read-out: Visual Growth Reduction (%) 14 Days After Application, TRZSS
[17] = ZEAMX: maize, corn (Zea mays), read-out: Visual Growth Reduction (%) 14 Days After Application, ZEAMX

COC(=O)c1nc(-c2cc(F)c(C#N)cc2F)cc(N)c1Cl [Compound 202]
85 to 94%: pest or weed control at 140 g/ha [1, 5] | pest or weed control at 70 g/ha [2, 10] | pest or weed control at 140 g/ha [2, 10] | pest or weed control at 140 g/ha [2, 15]
30 to 44%: pest or weed control at 70 g/ha [2, 11] | pest or weed control at 70 g/ha [2, 17]
0 to 29%: pest or weed control at 70 g/ha [2, 13] | pest or weed control at 140 g/ha [2, 13]
95 to 100%: pest or weed control at 70 g/ha [1, 3] | pest or weed control at 140 g/ha [1, 3] | pest or weed control at 70 g/ha [1, 4] | pest or weed control at 140 g/ha [1, 4] | pest or weed control at 70 g/ha [1, 6] | pest or weed control at 140 g/ha [1, 6] | pest or weed control at 70 g/ha [1, 7] | pest or weed control at 140 g/ha [1, 7] | pest or weed control at 70 g/ha [1, 8] | pest or weed control at 140 g/ha [1, 8] | pest or weed control at 140 g/ha [2, 12]
209.7 to 211.9 °C: melting point
45 to 59%: pest or weed control at 140 g/ha [2, 17]
60 to 74%: pest or weed control at 70 g/ha [1, 9] | pest or weed control at 140 g/ha [1, 9] | pest or weed control at 140 g/ha [2, 11] | pest or weed control at 70 g/ha [2, 12] | pest or weed control at 70 g/ha [2, 14] | pest or weed control at 140 g/ha [2, 14] | pest or weed control at 70 g/ha [2, 15] | pest or weed control at 70 g/ha [2, 16]
75 to 84%: pest or weed control at 70 g/ha [1, 5] | pest or weed control at 140 g/ha [2, 16]
